Measured values: paper PMC4426677, “Tubulin structure-based drug design for the development of novel 4β-sulfur-substituted podophyllum tubulin inhibitors with anti-tumor activity” (Scientific Reports, 2015)
“Also recorded” adds a separate entry of the source. Read-outs that look alike come from different tables or passages of the source.

Legend:
[1] = test system: human gastric carcinoma cell line BGC-823; assay: MTT cytotoxicity assay, BGC-823; format: cell-based; settings: read-out: Cytotoxic activity (IC50) BGC-823
Description: (§1) Cytotoxicity assays were performed on the human gastric carcinoma cell line BGC-823, the human lung adenocarcinoma cell line A549, the human hepatocellular liver carcinoma HepG2, and the normal human hepatic immortal cell line HL-7702. Cells (3500–13,000) were seeded into 96-well microtest plates in 100 μL of culture medium per well (Falcon, CA). The cells were treated in triplicate with a gradient concentration of test compounds and incubated at 37 °C in RPMI-1640 with 100 mg L^−1 kanamycin and 10% (v/v) fetal bovine serum in a humidified atmosphere containing 5% CO2 for 48 h. The plating efficiencies of the untreated cells varied between experiments with values ranging from 14 to 31% for the HL-7702 cells. For all cell lines, microculture tetrazolium [3-(4, 5-dimethylthiazol-2-yl)−2, 5-diphenyltetrazolium bromide, MTT; Sigma, St. Louis, MO] assay was performed to measure cytotoxic effects. […] The initial seeding densities varied among the cell lines to ensure a final absorbance reading in control (untreated) cultures within the range of 0.6–0.8 A492 units. […] Each test was performed in triplicate, and the absorbance readings between the triplicates varied by no more than 5%.
(§2) Data presented as means ± SD. Statistical analyses were performed by the analysis of variance (ANOVA). All statistical analyses were performed using Origin version 8.0 ([…], OriginLab Corp., Northampton, MA, USA). Sigmoidal dose responses and non-linear regression analyses were undertaken to identify half-maximal concentrations for each of the drugs. To evaluate differences in IC50 concentrations, analysis of variance combined with Tukey’s multiple range test was used.

A549 cells [2] = assay: Immunofluorescence staining of tubulin and nuclei; format: cell-based, human; settings: 1 μM, 12 hours
Description: (§3) The degree of tubulin polymerization was evaluated through pellet mass formation in centrifugation assays in the presence of stoichiometric and semi-stoichiometric concentrations of each lignan.
Cells were fixed with 4% paraformaldehyde in phospate buffered saline (PBS), permeabilized with 0.5% Triton X-100 in PBS, and then tubulin was immunostained with monoclonal antibody to tubulin (B5-1-2, Sigma) followed by fluorescein 5-isothiocyanate (FITC) conjugated secondary antibody. Nuclei were labeled with 4′, 6-diamidino-2-phenylindole (DAPI). Fluorescence labeled tubulin and nuclei were observed using a Zeiss Axioplan fluorescence microscope, and images were captured by a XL16 Excel cooled digital camera controlled by the Dage Exponent software (Dage-MTI). Final images were prepared using Adobe Photoshop. The cells were then processed for immunofluoscence staining and confocal microscopy (× 600).

[3] = MTT cytotoxicity assay, normal human cells HL-7720; format: cell-based; settings: drug exposure 48 h, mean ± SD (n = 3), read-out: Cytotoxic activity (IC50) HL-7720
Description: as §1, §2

[4] = test system: human lung adenocarcinoma cell line A549; assay: MTT cytotoxicity assay, A549; format: cell-based; settings: read-out: Cytotoxic activity (IC50) A549
Description: as §1, §2

[5] = test system: human hepatocellular liver carcinoma HepG2; assay: MTT cytotoxicity assay, HepG2; format: cell-based; settings: read-out: Cytotoxic activity (IC50) HepG2
Description: as §1, §2

tubulin = assay: Surface plasmon resonance binding to immobilized tubulin; settings: 1:1 Langmuir model, HBS-T buffer pH 7.4; read-out: equilibrium dissociation constant (KD value), SPR
Description: as §3
Based on the surface plasmon resonance (SPR) technology, the binding affinity of compounds to tubulin was determined with the ProteOn^TM XPR36 Protein Interaction Array System (Bio-Rad, Hercules, CA). For this purpose, tubulin was dissolved in 10 mM sodium acetate buffer (pH 3.5) and immobilized to the ProteOn^TM GLH sensor chip with the ProteOn^TM amine coupling kit. The final immobilization level was 8000 RU (Response unit). […] Data were analyzed with the ProteOn^TM Manager software, fitted to the 1:1 Langmuir model.

calf brain tubulin = assay: Tubulin assembly inhibition, centrifugation assay; format: biochemical; settings: 30 min at 37 °C, read-out: GI50, inhibition of tubulin polymerization
Description: as §3
Purification of calf brain tubulin and chemicals were followed as previously described by Andreu[20]. Ligands were dissolved in DMSO at 20 mM and kept at −80 °C. Work solutions were done in DMSO and kept at −20 °C. The 50% inhibitory ligand concentration of tubulin assembly was determined with a centrifugation assay. Tubulin was equilibrated prior to use in 3.4 M glycerol, 1 mM EGTA, 0.1 mM GTP, pH 7.0, buffer through a 25 cm × 0.9 cm Sephadex G-25 column. Aggregates were removed by a centrifugation at 90000 g × 10 min in a TLA 120 rotor at 4 °C in an Optima TLX centrifuge. Tubulin concentration was determined as described by Andreu[21]. Tubulin was kept at 4 °C, and 0.9 mM GTP and 6 mM MgCl2 were added to the sample. The solution was distributed in 200 μL polycarbonate tubes for the TL100 rotor. […] Microtubules were separated from unassembled tubulin by a centrifugation at 90000 g × 10 min in a TLA100 rotor at 37 °C in an Optima TLX centrifuge. […] The 50% inhibitory ligand concentration of tubulin assembly was determined with a centrifugation assay that measured the decrease in the concentrations of microtubules assembled in the presence of different concentrations of the compound.

A549 cells [6] = assay: Cell apoptosis analysis (annexin V/PI flow cytometry); format: cell-based, human; settings: for maximum level of apoptosis: 48 h
Description: After 48 h of treatment with 4-TG-PTOX, the maximum levels of apoptosis reached were 63% and 67% at 4-TG-PTOX concentrations of 1 and 5 µM, respectively.
Cell apoptosis-inducing detection in A549 cells treatment with different concentrations of 4-TG-PTOX (i.e., 0.1, 1, and 5 μM) for 6, 12, 24, 48 h, respectively. In the early stages of apoptosis, phosphatidylserine (PS) was translocated from the inside of the cell membrane to the outside. Annexin V, a calcium dependent phospholipid-binding protein associated with a high affinity for phosphatidylserine, was used to detect early apoptotic cells. Propidine Iodide (PI) was a red fluorescent dye and stained cells that had lost membrane integrity. So, cells stained with FITC-annexin V and PI were discriminated necrotic cells (Q1, Annexin-/PI +), late apoptotic cells (Q2, Annexin +/PI+), intact cells (Q3, Annexin -/PI -) and early apoptotic cells (Q4, Annexin+/PI -).

A549 cells [7] = assay: Cell cycle analysis (PI staining, flow cytometry); format: cell-based, human; settings: for G2/M phase arrest ratio: after 24 h incubation until end of incubation
Description: Tubulin inhibitors block cell cycle progression in mitosis at the G2/M phase, and a prolonged mitotic arrest triggers various apoptotic pathways. […] After 24 h incubations, the G2/M phase arrest ratio remained at around 80% and 90% until the end of the incubation.
Cell cycle arrest detection in A549 cells using propidium iodide (PI) double staining treatment with different concentrations of 4-TG-PTOX (i.e., 0.1, 1, and 5 μM) for 6, 12, 24, 48 h, respectively. The A549 cell line was used for cell cycle analysis. Cells were treated in triplicate with a gradient concentration of test compounds and incubated at 37 °C in RPMI-1640 with 100 mg L^−1 kanamycin and 10% (v/v) fetal bovine serum in a humidified atmosphere containing 5% CO2 for 48 h. Untreated and drug-treated cells were centrifuged and fixed overnight in 70% ethanol at 4 °C. They were then washed three times with PBS, incubated for 1 h with 1 mg/ mL RNase A and […] propidium iodide at room temperature, and analyzed with a FACSCalibur flow cytometer (BD, USA).

[8] = BGC-823, MTT, drug exposure 48 h, mean ± SD (n = 3)
[9] = A549, MTT, drug exposure 48 h, mean ± SD (n = 3)
[10] = HepG2, MTT, drug exposure 48 h, mean ± SD (n = 3)

SMILES | IC50 [1, 8] [µM] | effect on cellular microtubules (immunofluorescence) (A549 cells [2]) | IC50 at 48 h [3] [µM] | IC50 [4, 9] [µM] | IC50 [5, 10] [µM] | effect on nucleus (DAPI) (A549 cells [2]) | Kd (tubulin) [µM] | GI50 (calf brain tubulin) [µM] | ratio of apoptotic cells (A549 cells [6]; A549, 0.1 μM) | maximum level of apoptosis (A549 cells [6]; A549, 1 µM) [%] | maximum level of apoptosis (A549 cells [6]; A549, 5 µM) [%] | G2/M phase arrest (A549 cells [7]; A549, 0.1 μM) | G2/M phase arrest ratio (A549 cells [7]; A549, 1 μM) | G2/M phase arrest ratio (A549 cells [7]; A549, 5 μM) [%] | IC50 ([1]; BGC-823, 48 h) [µM] | IC50 ([4]; A549, 48 h) [µM] | IC50 ([5]; HepG2, 48 h) [µM]
COc1cc2c(c(OC)c1OC)-c1ccc(OC)c(=O)cc1[C@@H](NC(C)=O)CC2 [Colchicines, colchicine] | 12.2 ± 1.26 | inhibited tubulin polymerization | 6.42 ± 1.03 | 12.2 ± 0.76 | 13.2 ± 0.88 | – | – | – | – | – | – | – | – | – | – | – | –
COc1cc(C2c3cc4c(cc3C(Sc3ncnc5nc[nH]c35)C3COC(=O)C23)OCO4)cc(OC)c1OC (centres unmarked) [Compound 4-MP-PTOX] | 8.72 ± 3.15 | anti-microtubule activity was observed; also recorded: inhibited tubulin polymerization | 11.3 ± 0.57 | 1.12 ± 0.35 | 1.14 ± 1.07 | not damaged | 8.7 | < 2 | – | – | – | – | – | – | – | – | –
COc1cc(C2c3cc4c(cc3C(Sc3nc(N)nc5nc[nH]c35)C3COC(=O)C23)OCO4)cc(OC)c1OC (centres unmarked) [Compound 4-TG-PTOX] | 4.4 ± 1.55 | anti-microtubule activity was observed; also recorded: inhibited tubulin polymerization | 13.5 ± 2.41 | 0.57 ± 0.92 | 0.3 ± 0.34 | not damaged | 6.2 | < 1 | unaffected | 63 | 67 | arrested after 12 h and strongly arrested after 24 and 48 h | around 80% | ~90 | – | – | –
COC(=O)Nc1nc2ccc(C(=O)c3cccs3)cc2[nH]1 [Nocodazole, nocodazole] | – | – | 8.51 ± 1.73 | – | – | – | – | – | – | – | – | – | – | – | 38.9 ± 3.12 | 27.4 ± 2.92 | 18.4 ± 3.71
COc1cc([C@@H]2c3cc4c(cc3[C@H](O)[C@H]3COC(=O)[C@H]23)OCO4)cc(OC)c1OC [PTOX, podophyllotoxin] | 18.3 ± 2.22 | – | 4.31 ± 1.46 | 20.2 ± 2.75 | 8.36 ± 1.42 | – | – | – | – | – | – | – | – | – | – | – | –
